Source: patent US20180258381A1, “BIO-LAMINA BIOREACTORS AND METHODS OF MAKING AND USING THE SAME” (Oregon State University, priority 2015, published 2018)

Tests used:
[1] = molecular target: T1, sMMO (Methylosinus trichosporium, UniProt P27353); experiment: sMMO activity reactivity assay, inhibitor trials; assay type: cell-based, M. trichosporium OB3b
T1 construct: endogenous in cells; host or cells: M. trichosporium OB3b whole cells, grown without copper (chemostat or batch)
T1 sequence (P27353 1-526): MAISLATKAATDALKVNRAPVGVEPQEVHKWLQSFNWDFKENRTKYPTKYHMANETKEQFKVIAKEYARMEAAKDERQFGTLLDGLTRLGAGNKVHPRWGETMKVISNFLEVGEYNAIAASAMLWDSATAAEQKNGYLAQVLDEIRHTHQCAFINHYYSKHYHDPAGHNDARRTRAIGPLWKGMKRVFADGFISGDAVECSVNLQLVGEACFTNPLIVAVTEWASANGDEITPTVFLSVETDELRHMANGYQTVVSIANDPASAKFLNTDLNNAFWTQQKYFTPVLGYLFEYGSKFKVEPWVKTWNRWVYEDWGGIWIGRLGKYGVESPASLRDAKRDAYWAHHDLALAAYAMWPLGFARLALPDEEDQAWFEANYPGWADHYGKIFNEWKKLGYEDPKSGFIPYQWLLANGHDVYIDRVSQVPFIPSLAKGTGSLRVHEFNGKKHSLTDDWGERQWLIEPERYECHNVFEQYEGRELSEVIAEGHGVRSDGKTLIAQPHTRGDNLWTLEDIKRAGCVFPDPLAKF
T1 sequence (P27354 1-394 partner): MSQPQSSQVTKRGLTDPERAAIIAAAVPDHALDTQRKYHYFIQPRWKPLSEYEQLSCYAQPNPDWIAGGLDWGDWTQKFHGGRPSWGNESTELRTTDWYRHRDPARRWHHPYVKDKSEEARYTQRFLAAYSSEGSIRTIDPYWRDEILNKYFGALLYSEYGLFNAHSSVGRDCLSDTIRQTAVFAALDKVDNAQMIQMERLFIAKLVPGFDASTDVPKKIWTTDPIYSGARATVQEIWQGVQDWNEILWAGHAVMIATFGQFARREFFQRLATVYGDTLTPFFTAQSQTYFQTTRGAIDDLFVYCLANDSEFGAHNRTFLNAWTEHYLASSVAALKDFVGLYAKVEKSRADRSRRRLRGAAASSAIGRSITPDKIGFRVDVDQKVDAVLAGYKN
T1 sequence (P27355 1-169 partner): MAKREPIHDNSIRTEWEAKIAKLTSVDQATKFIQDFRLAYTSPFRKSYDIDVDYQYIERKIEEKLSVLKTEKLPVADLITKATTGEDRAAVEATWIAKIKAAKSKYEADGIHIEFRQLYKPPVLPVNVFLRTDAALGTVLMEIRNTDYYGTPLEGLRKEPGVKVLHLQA
Protocol: M. trichosporium OB3b cultures were grown under plus copper (pMMO expressed) or minus copper (sMMO expressed) conditions using chemostat or batch culture conditions. Aliquots of culture (˜100 ml) were harvested by centrifugation, and concentrated 50-fold in fresh media. Pelleting cells in this manner ensured that all residual methane was eliminated, increased ease of measuring protein, and made activity assays as brief as possible. Assays were performed in 30 ml crimp cap reaction vials with 4 ml of media (either +Cu or −Cu) with 10 mM sodium formate. To initiate assays, 100 µl of the 50× cell suspension was added to reaction vials with a plastic syringe. Short descriptions of activity assays follow.
Due to the relative insolubility of methane, large volumes should be added to reaction vials to achieve concentrations in the aqueous phase (Cw) above the concentration of methane where the velocity of methane consumption (V) is equal to 0.5Vmax for minus copper grown M. trichosporium OB3b cultures. These large methane additions make direct measurement of methane consumption in short-term assays unlikely, therefore the accumulation of ethylene oxide (ETO) upon the oxidation of ethylene (ETH) was used as a surrogate measurement. Reaction vials were prepared as described above and 5 ml of ETH added as an overpressure. The appearance of ETO was monitored by gas chromatography evaluation of Cw over the course of 30 minutes (FIG. 39A). Killed cells (boiled) served as a negative control. pMMO is a copper enzyme and can be inhibited by allylthiourea (ATU), while sMMO (an iron enzyme) is insensitive to inhibition by ATU. The ETH to ETO assay described above was repeated with 10 μM ATU to discriminate between sMMO and pMMO activity.
(§1) Metabolic activity test methods have been developed to monitor specific activities in M. trichosporium OB3b cultures. A naphthalene oxidation assay was used to determine if sMMO is being expressed. An ethylene to ethylene oxide reaction assay and a methane oxidation assay was used to quantify MMO activity, and a methanol oxidation assay was used to estimate MDH activity. Concurrent batch metabolic tests can be conducted to investigate methanol inhibition of methane oxidation, cyclopropane to cyclopropanol conversion and concurrent/subsequent cyclopropanol inhibition of MDH activity, the effect of cyclopropanol inhibition on growth yield, and the effects of high oxygen concentration. Once stable operation and baseline metabolic monitoring in the chemostat have been achieved, inhibitor can be added to evaluate chemostat operation under methanol-producing conditions.
MMO activity has been measured via both methane (CH4) consumption and ethylene oxide (ETO) production upon oxidation of the non-growth substrate ethylene (ETH, Table 4). While ETO production matches methane consumption for pMMO, ETH is not as good a substrate for sMMO as methane. Nevertheless, the ETO accumulation assay is quick (<30 min) and can be used to screen for activity before starting a larger experiment.
(§2) The effect of salts NaCl, NH4Cl and CaCl2 on MMO and MDH activity was evaluated using the reactivity assays described above.

[2] = system: MDH; experiment: MDH activity reactivity assay (methanol SOUR), inhibitor trials; assay type: cell-based, M. trichosporium OB3b
Protocol: The procedure for measuring methanol dehydrogenase (MDH) activity by measuring the specific oxygen uptake rate (SOUR) has been tested on M. trichosporium OB3b cultures grown both in batch and in the chemostat. M. trichosporium OB3b cells were harvested using centrifugation. The supernatant was poured off and the cells were re-suspended in fresh media lacking a carbon source. Phosphate buffer solution was added to a sample chamber in which dissolved oxygen (DO) was measure with a DO probe. When the DO of the solution stabilized, the re-suspended cells were added to the sample chamber to measure baseline oxygen uptake by the cells without a carbon food source present. Methanol was then added to test for MDH activity. The difference in the oxygen uptake rates illustrates the MDH activity of the culture.
as §1, with “concentration.” for “concentration. Once stable operation and baseline metabolic monitoring in the chemostat have been achieved, inhibitor can be added to evaluate chemostat operation under methanol-producing conditions.”
as §2

[Ca+2].[Cl-].[Cl-] [CaCl2]
Fraction of Activity Remaining, sMMO ([1]; CaCl2 10 mmol): 0.41 | Fraction of Activity Remaining, sMMO ([1]; CaCl2 20 mmol): 0.29 | Fraction of Activity Remaining, sMMO ([1]; CaCl2 40 mmol): 0.20 | Fraction of Activity Remaining, MDH ([2]; CaCl2 10 mmol): 0.71 | Fraction of Activity Remaining, MDH ([2]; CaCl2 40 mmol): 0.45 | Fraction of Activity Remaining, MDH ([2]; CaCl2 66 mmol): 0.35 | selective inhibition of MDH activity versus MMO ([2]; salts tested on MMO and MDH activity): None of the salts were effective
